Key:
[1] = tested on: IL-17 production in human blood; assay: Effect on IL-17 production in human blood; format: cell-based; details: 72 h; 10 μM test compound; human peripheral blood, IL-23 and Dynabeads stimulation, 3 days; read-out: percent inhibition at 10 μM (IL-17 production)
Method in brief: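 Heparinized healthy-donor whole blood pre-incubated with compound 30 min at 37° C, then stimulated with IL-23 (added as 100 ng/mL solution) plus Dynabeads Human for 3 days at 37° C. Supernatant IL-17 measured by ELISA; values given as percent inhibition at 10 μM compound.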

IL-17A gene expression = assay: Effect on IL-23-induced cytokine expression in mice; format: in vivo, mouse; details: 3 mg/kg oral, 30 min before and 8 hr after IL-23; ear of Balb/c mice; versus the negative control group
[2] = tested on: IL-23-induced mouse psoriasis model; assay: IL-23-induced mouse psoriasis model; format: in vivo; details: 3 mg/kg oral twice daily, Balb/c mice, versus the negative control group
Experimental: Effect in an IL-23-Induced Mouse Psoriasis Model
Mouse IL-23 (500 ng/15 μL, R&D) or PBS (15 μL, negative control group) was administered intradermally in the ear of Balb/c mice (Charles River Japan, male, 7 weeks old) 5 times every other days. Seven hr after IL-23 administration at 8 days after the initial administration (final administration), the mice were anesthetized with isoflurane, and ear thickness was measured with calipers. After the ear thickness was measured, the ear was resected, tissue 8 mm in diameter was punched from an area centering on the IL-23 injection site, and the tissue was weighed. The punched ear tissue was cut in half, and one half was immersion-fixed in 10% neutral buffer formalin solution for use in histopathological evaluation. The other half was immersed in RNAlater (QIAGEN) for at least 18 hr for use in an evaluation of the IL-17A mRNA expression level. The test compound was suspended in 0.5% methylcellulose and administered orally twice daily on consecutive days from 30 min before the initial IL-23 administration to 30 min before the final IL-23 administration.
The change in ear thickness in this model was evaluated by calculating the difference in measured thickness between before IL-23 administration and 7 hr after the final IL-23 administration. In addition, the formalin-fixed tissue was embedded and sectioned, then stained with hematoxylin-eosin. The degree of acanthosis was then evaluated qualitatively by microscopy (classified with a score of 0 to 4). RNA extraction from the ear tissue and quantitative PCR were performed as follows. As described above, ear tissue treated with RNAlater (QIAGEN) was homogenized in 350 μL of RLT buffer (RNeasy mini kit, QIAGEN) and treated (55° C., 10 min) with Proteinase K (QIAGEN). Total RNA was then extracted according to the RNeasy mini kit protocol. The RNA thus obtained was reverse transcribed into cDNA using the High-Capacity RNA-to-cDNA kit (Applied Biosystems), and the expression of each gene was measured by real-time PCR (Viia7™, Applied Biosystems). The PCR buffer used was TaqMan Fast Advanced Master Mix (Applied Biosystems), and TaqMan Gene Expression Assays (Applied Biosystems) Mm00439618_m1 (IL-17A) and 4352341E (β-actin) were used to detect the genes. The IL-17A gene expression level was normalized to the β-actin gene expression level, and the percent inhibition of IL-17A gene expression with the test compound was then calculated.
The results (percent inhibition of ear thickness, acanthosis score and IL-17A gene expression with oral administration of the test compound) measured by the above-mentioned method are shown in Table 10.

[3] = tested on: T cell-transferred mouse colitis model; assay: T cell-transferred mouse colitis model; format: in vivo; details: 3 mg/kg oral twice daily; SCID mice, 21 days after cell transfer; versus the negative control group
Source text: Effect in a T Cell-Transferred Mouse Colitis Model
Balb/c mice (Charles River Japan, female, 8 weeks old) were euthanized, and the spleens were resected, mashed in mesh, and passed through cell strainer to prepare a suspension of splenic cells. The mononuclear cell fraction in the splenic cells was isolated by density-gradient centrifugation, and subjected to hemolysis treatment with ammonium chloride buffer solution (Immuno-Biological Laboratories, Co., Ltd.). The naive T-cells were purified using CD4+CD62L+ T Cell Isolation Kit II (Miltenyi Biotec). The naive T-cells (2×10^5 cells/mouse) were intravenously transferred into SCIDmice (CLEA Japan, female, 8 weeks old). The compound was suspended in 0.5% methyl cellulose, and the suspension was orally administered twice daily on consecutive days from the same evening of the cell transfer. The mice were blinded 20 days after the cell transfer, and the symptom of the stool on floorcloth under blind was evaluated by scores of 1 to 4 (1: normal, 2: loose stool, 3: diarrhea (formed), 4: diarrhea (unformed)) 21 days after the cell transfer. […] The large intestine was washed with saline, and the weight was measured.
The results (percent inhibition of intestinal tract weight and diarrhea score with oral administration of the test compound) measured by the above-mentioned method are shown in Table 11.

mouse EAE model = assay: Mouse EAE model; format: in vivo; details: 3 mg/kg oral; C57BL/6J mice; integration value of clinical score for 28 days; versus the negative control group
Experimental: Effect in a Mouse EAE Model
. C57BL/6J mice (10 weeks old, female, Charles River Japan) were grouped based on the body weight, and the MOG emulsion was intradermally administered at two point of the joint of dorsal hindlimb so that the dose was 100 μL/site, 200 μL/mouse. In addition, Pertussis toxin (Merck) was intraperitoneally administered twice on the sensitization day and 2 days thereafter in the dose of 400 ng/200 μL/mouse. The body weight was measured twice a week before onset and everyday (excluding holiday) after onset from the sensitization day. The clinical score was evaluated by the following standard scores of 0 to 5 (0: normal, 0.5: partial paralysis of tail, 1: complete paralysis of tail, 2: partial paralysis of hindlimb, 3: paralysis of lower body, 4: partial paralysis of forelimb, 5: paralysis of both forelimbs or death) by observation everyday (excluding holiday) after the beginning of onset.
The percent inhibition of the clinical score of the test compound administration group relative to that of the control group was calculated using integration value of the clinical score for 28 days.
The results (percent inhibition of clinical score with oral administration of the test compound) measured by the above-mentioned method are shown in Table 12.

SMILES: COc1ccc2c(n1)CCN(C(=O)[C@H]1C[C@@H](CC(=O)O)C1)[C@H]2C(=O)Nc1cc(F)c2c(c1)CCC2(C)C [Example 15, (cis-3-(((5R)-5-((7-fluoro-1,1-dimethyl-2,3-dihydro-1H-inden-5-yl)carbamoyl)-2-methoxy-7,8-dihydro-1,6-naphthyridin-6(5H)-yl)carbonyl)cyclobutyl)acetic acid]
- inhibition at 10 µM [1]: 94%
- percent inhibition of IL-17A gene expression (IL-17A gene expression): 99%
- percent inhibition of acanthosis score [2]: 53%
- percent inhibition of ear thickness [2]: 61%
- percent inhibition of IL-17A expression ([2]; ear tissue): 93%
- percent inhibition of diarrhea score [3]: 81%
- percent inhibition of intestinal tract weight [3]: 58%
- percent inhibition of clinical score (mouse EAE model): 64%

Source: patent publication US10093629B2, “Heterocyclic compounds and their use as retinoid-related orphan receptor (ROR) gamma-T inhibitors” (Takeda Pharmaceutical Company Limited, priority 2014, dated 2018)
